Source: patent US9611252B2 (LifeSci Pharmaceuticals, Inc., priority 2013, dated 2017)
Like-named read-outs stand apart in the source and are kept apart here.

Columns and labels:
[1] = molecular target: kallikrein (Homo sapiens (Human), UniProt P03952); assay: In vitro cellular assay (contact assay): kallikrein activity in ellagic acid-activated human plasma, substrate Z-FR-2-AMC; assay type: biochemical
Experimental: The ability of the compounds disclosed herein to inhibit cellular kallikrein activity was quantified and the respective EC50 value was determined.
All dilutions were prepared in an assay buffer comprising 50 mM Tris-HCl pH 7.2, 150 mM NaCl, and 0.01% Triton X-100.
The ten solutions of the test compounds, prepared by serial dilution, were further diluted 50-fold in the assay buffer.
Human plasma is thawed on ice and centrifuged for 15 min at 4° C. to remove platelets. A 1 mM stock solution of ellagic acid is diluted to 8 μM and mixed with human plasma, after removing platelets, at a ratio of 1:0.8.
A 22.5 μL volume of the final mixture of human plasma and ellagic acid was added to a 96-well microwell plate and the plate was incubated for 15 min at 37° C.
The CINH inhibitor at various concentrations, prepared by serial dilutions as described above, were added to the inhibitor control wells. […] Each CINH concentration is tested in duplicates.
The test compounds at various concentrations, also prepared by serial dilutions as described above, are added to the test wells. […] Each test compound concentration was tested in duplicates.
In addition to the inhibitor control and test wells, the 96 well assay plate includes positive control wells which contained the mixture of human plasma and ellagic acid without C1NH inhibitor or test compounds, and background wells which contained neither the mixture of human plasma and ellagic acid nor the test compounds. The total volume of liquid in positive control and background wells was brought up to 35 μL, using the assay buffer.
The assay plate containing C1NH inhibitors and test compounds mixed with human plasma and ellagic acid and appropriate controls was incubated at 37° C. for 5 min. […] The reagents were mixed well by shaking the plate gently for 30 sec.
The enzyme reaction was quantified by immediate kinetic reading of the assay plate using excitation/emission wavelengths of 330 nm/440 nm respectively. Fluorescence intensity was recorded for 60 min, using a time interval of 43 sec.
The inhibition activity of the test compounds were evaluated using the IC50 values, calculated according to the dose-response curve of the test compounds, fitted using the “log(inhibitor)-response (variable slope)” equation in GraphPadPrism software (GraphPad Software, Inc.).
The percentage inhibition was calculated using the following equation:
[formula] where, Mean(BG) is the average value of the fluorescence intensity of the background wells and Mean(PC) is the average value of the fluorescence intensity of the positive control wells.
Table 4 provides the EC50 values of various compounds disclosed herein.

[2] = molecular target: human Plasma Kallikrein (Homo sapiens (Human), UniProt P03952); assay: In vitro enzyme inhibition of human plasma kallikrein (PFR-AMC cleavage); assay type: biochemical; details: human plasma kallikrein, Pro-Phe-Arg-AMC substrate, 37° C.; read-out: hPK IC50
Procedure, shortened: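 Compound pre-incubated with human plasma kallikrein 5 min at 37° C in 50 mM Tris-HCl pH 7.5, 150 mM NaCl, 0.01% Triton X-100. Reaction started with PFR-AMC, cleavage read kinetically at 37° C every 43 s for 1 h.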

[3] = human plasma activated with ellagic acid, Z-FR-2-AMC substrate, 37° C., read-out: Contact Assay EC50

human Plasma Kallikrein, sequence (P03952 20-638): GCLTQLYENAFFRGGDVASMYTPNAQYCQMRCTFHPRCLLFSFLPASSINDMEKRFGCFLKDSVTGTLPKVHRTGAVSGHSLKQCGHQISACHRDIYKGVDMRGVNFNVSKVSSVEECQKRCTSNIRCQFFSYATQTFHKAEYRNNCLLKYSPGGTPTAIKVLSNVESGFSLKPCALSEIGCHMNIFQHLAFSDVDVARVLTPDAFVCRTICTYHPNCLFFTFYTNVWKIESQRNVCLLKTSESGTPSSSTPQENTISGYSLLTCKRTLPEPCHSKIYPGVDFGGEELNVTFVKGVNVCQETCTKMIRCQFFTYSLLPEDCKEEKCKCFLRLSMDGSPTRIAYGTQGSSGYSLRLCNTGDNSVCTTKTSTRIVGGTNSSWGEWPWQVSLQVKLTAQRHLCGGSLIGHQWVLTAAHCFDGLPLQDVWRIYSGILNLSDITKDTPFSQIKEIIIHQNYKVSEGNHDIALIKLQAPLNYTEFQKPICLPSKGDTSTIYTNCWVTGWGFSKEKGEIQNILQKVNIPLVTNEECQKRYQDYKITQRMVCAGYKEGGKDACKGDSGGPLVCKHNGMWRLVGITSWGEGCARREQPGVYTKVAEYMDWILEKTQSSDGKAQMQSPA
kallikrein, sequence (P03952 20-638): as above

Row | Structure (SMILES) | EC50 [1, 3] | IC50 [2] | EC50 [1]
1 | Cc1cnc2c(S(C)(=O)=O)cc(Cc3cc(C(=O)NCc4ccc5[nH]cc(Cl)c5c4F)ccn3)cc2c1 [Example 21, N-((3-chloro-4-fluoro-1H-indol-5-yl)methyl)-2-((3-methyl-8-(methylsulfonyl)quinolin-6-yl)methyl)isonicotinamide] | < 100 nM | < 100 nM | 
2 | Nc1nccc2cc(CNC(=O)c3ccnc(Cc4ccc5ncc(Cl)cc5c4)c3)ccc12 [Example 31, N-((1-aminoisoquinolin-6-yl)methyl)-2-((3-chloroquinolin-6-yl)methyl)isonicotinamide] | < 100 nM | < 100 nM | 
3 | O=C(NCc1cc2c(Cl)c[nH]c2cc1F)c1ccnc(Cc2ccc3ncc(Cl)cc3c2)c1 [Example 33, N-((3-chloro-6-fluoro-1H-indol-5-yl)methyl)-2-((3-chloroquinolin-6-yl)methyl)isonicotinamide] | 100 to 1000 nM | < 100 nM | 
4 | Cc1nc(N)ccc1CNC(=O)c1ccnc(Cc2ccc3ncc(Cl)cc3c2)c1 [Example 34, N-((6-amino-2-methylpyridin-3-yl)methyl)-2-((3-chloroquinolin-6-yl)methyl)isonicotinamide] | < 100 nM | < 100 nM | 
5 | Cc1cc(N)nc(C)c1CNC(=O)c1ccnc(Cc2ccc3ncc(Cl)cc3c2)c1 [Example 35, N-((6-amino-2,4-dimethylpyridin-3-yl)methyl)-2-((3-chloroquinolin-6-yl)methyl)isonicotinamide] | < 100 nM | < 100 nM | 
6 | O=C(NCc1cnc2[nH]cc(Cl)c2c1)c1ccnc(Cc2ccc3ncc(Cl)cc3c2)c1 [Example 38, N-(3-Chloro-1H-pyrrolo[2,3-b]pyridin-5-ylmethyl)-2-(3-chloro-quinolin-6-ylmethyl)-isonicotinamide] | 100 to 1000 nM | < 100 nM | 
7 | O=C(NCc1ccc2[nH]cc(Cl)c2c1F)c1ccnc(Cc2ccc3ncc(Cl)cc3c2)c1 [Example 40, N-(3-Chloro-4-fluoro-1H-indol-5-ylmethyl)-2-(3-chloro-quinolin-6-ylmethyl)-isonicotinamide] | 100 to 1000 nM | < 100 nM | 
8 | N#Cc1cc(Cc2cc(C(=O)NCc3ccc4c(N)nccc4c3)ccn2)cc2cc(Cl)cnc12 [Example 57, N-(1-amino-isoquinolin-6-ylmethyl)-2-(3-chloro-8-cyano-quinolin-6-ylmethyl)-isonicotinamide] |  | < 100 nM | 100 to 1000 nM
9 | NC(=O)c1cc(Cc2cc(C(=O)NCc3cc4c(Cl)c[nH]c4cc3F)ccn2)cc2cc(Cl)cnc12 [Example 59, 3-chloro-6-((4-(((3-chloro-6-fluoro-1H-indol-5-yl)methyl)carbamoyl)pyridin-2-yl)methyl)quinoline-8-carboxamide] | 100 to 1000 nM | < 100 nM | 
10 | NC(=O)c1cc(Cc2cc(C(=O)NCc3n[nH]c4ccc(Cl)cc34)ccn2)cc2cc(Cl)cnc12 [Example 60, 3-chloro-6-((4-(((5-chloro-1H-indazol-3-yl)methyl)carbamoyl)pyridin-2-yl)methyl)quinoline-8-carboxamide] | 100 to 1000 nM | < 100 nM | 
11 | NC(=O)c1cc(Cc2cc(C(=O)NCc3cnc4[nH]cc(Cl)c4c3)ccn2)cc2cc(Cl)cnc12 [Example 61, 3-chloro-6-((4-(((3-chloro-1H-pyrrolo[2,3-b]pyridin-5-yl)methyl)carbamoyl)pyridin-2-yl)methyl)quinoline-8-carboxamide] | 100 to 1000 nM | < 100 nM | 
12 | Cc1nc(N)ccc1CNC(=O)c1ccnc(Cc2cc(C(N)=O)c3ncc(Cl)cc3c2)c1 [Example 62, 6-((4-(((6-amino-2-methylpyridin-3-yl)methyl)carbamoyl)pyridin-2-yl)methyl)-3-chloroquinoline-8-carboxamide] | < 100 nM | < 100 nM | 
13 | NC(=O)c1cc(Cc2cc(C(=O)NCc3ccc4c(N)nccc4c3)ccn2)cc2cc(Cl)cnc12 [Example 64, 6-((4-(((1-aminoisoquinolin-6-yl)methyl)carbamoyl)pyridin-2-yl)methyl)-3-chloroquinoline-8-carboxamide] | < 100 nM | < 100 nM | 
14 | NC(=O)c1cc(Cc2cc(C(=O)NCc3ccc4[nH]cc(Cl)c4c3F)ccn2)cc2cc(Cl)cnc12 [Example 65, 3-chloro-6-((4-(((3-chloro-4-fluoro-1H-indol-5-yl)methyl)carbamoyl)pyridin-2-yl)methyl)quinoline-8-carboxamide] | < 100 nM | < 100 nM | 
15 | NC(=O)c1cc(Cc2cc(C(=O)NCc3cc4cc[nH]c4cc3F)ccn2)cc2cc(Cl)cnc12 [Example 66, 3-chloro-6-((4-(((6-fluoro-1H-indol-5-yl)methyl)carbamoyl)pyridin-2-yl)methyl)quinoline-8-carboxamide] | 100 to 1000 nM | < 100 nM | 
16 | Cc1cc(N)nc(C)c1CNC(=O)c1ccnc(Cc2cc(S(C)(=O)=O)c3ncc(Cl)cc3c2)c1 [Example 67, N-((6-amino-2,4-dimethylpyridin-3-yl)methyl)-2-((3-chloro-8-(methylsulfonyl)quinolin-6-yl)methyl)isonicotinamide] | < 100 nM | < 100 nM | 
17 | CS(=O)(=O)c1cc(Cc2cc(C(=O)NCc3cc4c(Cl)c[nH]c4cc3F)ccn2)cc2cc(Cl)cnc12 [Example 68, N-((3-chloro-6-fluoro-1H-indol-5-yl)methyl)-2-((3-chloro-8-(methylsulfonyl)quinolin-6-yl)methyl)isonicotinamide] | < 100 nM | < 100 nM | 
18 | Cc1nc(N)ccc1CNC(=O)c1ccnc(Cc2cc(S(C)(=O)=O)c3ncc(Cl)cc3c2)c1 [Example 69, N-((6-amino-2-methylpyridin-3-yl)methyl)-2-((3-chloro-8-(methylsulfonyl)quinolin-6-yl)methyl)isonicotinamide] | < 100 nM | < 100 nM | 
19 | Cc1cnc2c(C#N)cc(Cc3cc(C(=O)NCc4c(C)cc(N)nc4C)ccn3)cc2c1 [Example 70, N-((6-amino-2,4-dimethylpyridin-3-yl)methyl)-2-((8-cyano-3-methylquinolin-6-yl)methyl)isonicotinamide] | < 100 nM | < 100 nM | 
20 | Cc1cnc2c(C#N)cc(Cc3cc(C(=O)NCc4ccc5c(N)nccc5c4)ccn3)cc2c1 [Example 71, N-((1-aminoisoquinolin-6-yl)methyl)-2-((8-cyano-3-methylquinolin-6-yl)methyl)isonicotinamide] | < 100 nM | < 100 nM | 
21 | Cc1cnc2c(C#N)cc(Cc3cc(C(=O)NCc4cc5c(Cl)c[nH]c5cc4F)ccn3)cc2c1 [Example 72, N-((3-chloro-6-fluoro-1H-indol-5-yl)methyl)-2-((8-cyano-3-methylquinolin-6-yl)methyl)isonicotinamide] | 100 to 1000 nM | < 100 nM | 
22 | Cc1cnc2c(C#N)cc(Cc3cc(C(=O)NCc4cnc5[nH]cc(Cl)c5c4)ccn3)cc2c1 [Example 73, N-((3-chloro-1H-pyrrolo[2,3-b]pyridin-5-yl)methyl)-2-((8-cyano-3-methylquinolin-6-yl)methyl)isonicotinamide] | 100 to 1000 nM | < 100 nM | 
23 | Cc1cnc2c(C(N)=O)cc(Cc3cc(C(=O)NCc4c(C)cc(N)nc4C)ccn3)cc2c1 [Example 77, 6-((4-(((6-amino-2,4-dimethylpyridin-3-yl)methyl)carbamoyl)pyridin-2-yl)methyl)-3-methylquinoline-8-carboxamide] | < 100 nM | < 100 nM | 
24 | Cc1cnc2c(C(N)=O)cc(Cc3cc(C(=O)NCc4cc5c(Cl)c[nH]c5cc4F)ccn3)cc2c1 [Example 78, 6-((4-(((3-chloro-6-fluoro-1H-indol-5-yl)methyl)carbamoyl)pyridin-2-yl)methyl)-3-methylquinoline-8-carboxamide] | < 100 nM | < 100 nM | 
25 | Cc1cnc2c(C(N)=O)cc(Cc3cc(C(=O)NCc4ccc5c(N)nccc5c4)ccn3)cc2c1 [Example 79, 6-((4-(((1-aminoisoquinolin-6-yl)methyl)carbamoyl)pyridin-2-yl)methyl)-3-methylquinoline-8-carboxamide] | < 100 nM | < 100 nM | 
26 | Cc1cnc2c(C(N)=O)cc(Cc3cc(C(=O)NCc4cnc5[nH]cc(Cl)c5c4)ccn3)cc2c1 [Example 80, 6-((4-(((3-chloro-1H-pyrrolo[2,3-b]pyridin-5-yl)methyl)carbamoyl)pyridin-2-yl)methyl)-3-methylquinoline-8-carboxamide] | < 100 nM | < 100 nM | 
